Measured values reported in US20250332149A1, “PIPERIDINE COMPOUNDS AND PHARMACEUTICAL COMPOSITIONS” (Lumos Pharma, Inc., priority 2024, published 2025).

Assay: Phase 1 study Part 1: plasma PK and relative bioavailability of LUM-201 tablets vs capsule
Type: in vivo, human
Details: for % AUCex, Arithmetic Mean / % AUCex, Geometric Mean / Clast, Arithmetic Mean / Clast, Geometric Mean / DNAUC0-inf, Arithmetic Mean / DNAUC0-inf, Geometric Mean / DNAUC0-last, Arithmetic Mean / DNAUC0-last, Geometric Mean / DNCmax, Arithmetic Mean / DNCmax, Geometric Mean / tlag, Median / tlast, Median / λz, Arithmetic Mean / λz, Geometric Mean / DNAUC0-inf, GLS Mean / DNAUC0-last, GLS Mean / DNCmax, GLS Mean: oral, fasted; for DNAUC0-inf, GLS Mean / DNAUC0-last, GLS Mean / DNCmax, GLS Mean: ANOVA
Source text: This study in healthy adult subjects was designed to establish the pharmacokinetic (PK) and pharmacodynamic (PD) profiles for the orally administered test product (coated mini-tablets in a capsule) and reference product (mini-tablet) to evaluate relative bioavailability in Part 1 and to evaluate the food effect on the bioavailability of test product (capsule only) in Part 2.
This was a single center, open-label, randomized, Phase 1 study in healthy adult subjects. This study consisted of 2 parts: Part 1 was a 4-sequence, 4-treatment, 4 Treatment Periods, crossover study to determine the relative bioavailability of current tablets to new capsule formulations of LUM-201; Part 2 was a 2-sequence, 2-treatment, 2 Treatment Periods, crossover study to evaluate the food effect on the bioavailability of the new capsule formulation of LUM-201. An individual subject was allowed to participate in only 1 part (Part 1 or Part 2) of the study. Forty subjects were planned and enrolled in this study. • Part 1: A total of 28 subjects were planned and enrolled in Part 1. Part 1 consisted of 4 sequences, each having 4 Treatment Periods enrolling 7 subjects (1:1:1:1 ratio). During Treatment Periods 1 through 4, each subject received 4 single oral doses of LUM-201 drug product in a randomized, crossover order. • Part 2: A total of 12 subjects were planned and enrolled in Part 2. Part 2 consisted of 2 sequences, each having 2 Treatment Periods enrolling 6 subjects (1:1 ratio). Each subject received a single oral dose of LUM-201 at each Treatment Period. During Treatment Periods 1 and 2, each subject received 2 single oral doses of LUM-201 in a randomized, crossover order. • On Day 1 of Treatment Period 1, subjects were administered the assigned treatment (A or B) as randomized, followed by a washout of at least 3 days between Treatment Periods 1 and 2. Subjects stayed in-house (not discharged) between the Treatment Periods. • Treatment A was dosed at 85.3 mg capsule formulation of LUM-201 (intact capsule consumed unopened) consumed while subject was in a fasted state with 240 mL of water. • Treatment B was dosed at 85.3 mg capsule formulation of LUM-201 (intact capsule consumed unopened) consumed 30 minutes after start of a high-fat meal with 240 mL of water. • Subjects were discharged from the study center on the morning of Day 3 of Treatment Period 2 after the scheduled study assessments had been completed.
• Treatment A (reference): five 18 mg oral tablets of LUM-201 were administered under fasted state with 240 mL of water. • Treatment B (test): a single 85.3 mg dose of oral capsule formulation of LUM-201 was administered as a whole capsule under fasted state with 240 mL of water. • Treatment C (test): a single 85.3 mg dose of oral capsule formulation of LUM-201 was administered by dosing capsule contents (dry) under fasted state with 240 mL of water. • Treatment D (test): a single 85.3 mg dose of oral capsule formulation of LUM-201 was mixed (capsule contents) with banana puree (2 teaspoons), followed by 240 mL of water and was ingested within 5 minutes under fasted state (Note: Banana Puree, single serve cup was used [118.3 mL]). […]

[1] = 85.3 mg capsule, Treatments B, C and D
[2] = Part 1, Treatment A (reference): five 18 mg tablets (90 mg)
[3] = Part 1, Treatment B (test): 85.3 mg whole capsule
[4] = Part 1, Treatment C (test): 85.3 mg capsule contents (dry)
[5] = Part 1, Treatment D (test): 85.3 mg capsule contents in banana puree

bioequivalence of DNAUC0-last and AUC0-inf to the 90 mg tablet, fasted (Treatment A) [1]: bioequivalent
bioequivalence of DNCmax to the 90 mg tablet dose, fasted (Treatment A) [1]: not bioequivalent
% AUCex, Arithmetic Mean [2]: 1.763%
% AUCex, Geometric Mean [2]: 1.652%
Clast, Arithmetic Mean [2]: 0.8783 ng/mL
Clast, Geometric Mean [2]: 0.8225 ng/mL
DNAUC0-inf, Arithmetic Mean [2]: 6.998 ng·h/mL/mg
DNAUC0-inf, Geometric Mean [2]: 6.247 ng·h/mL/mg
DNAUC0-last, Arithmetic Mean [2]: 6.885 ng·h/mL/mg
DNAUC0-last, Geometric Mean [2]: 6.137 ng·h/mL/mg
DNCmax, Arithmetic Mean [2]: 1.464 ng/mL/mg
DNCmax, Geometric Mean [2]: 1.267 ng/mL/mg
tlag, Median [2]: 0 h
tlast, Median [2]: 36.34 h
λz, Arithmetic Mean [2]: 0.0901 h⁻¹
λz, Geometric Mean [2]: 0.0886 h⁻¹
DNAUC0-inf, GLS Mean [2]: 6.25 ng·h/mL/mg
DNAUC0-last, GLS Mean [2]: 6.14 ng·h/mL/mg
DNCmax, GLS Mean [2]: 1.27 ng/mL/mg
% AUCex, Arithmetic Mean [3]: 1.748%
% AUCex, Geometric Mean [3]: 1.630%
Clast, Arithmetic Mean [3]: 0.7461 ng/mL
Clast, Geometric Mean [3]: 0.7189 ng/mL
DNAUC0-inf, Arithmetic Mean [3]: 6.638 ng·h/mL/mg
DNAUC0-inf, Geometric Mean [3]: 6.008 ng·h/mL/mg
DNAUC0-last, Arithmetic Mean [3]: 6.534 ng·h/mL/mg
DNAUC0-last, Geometric Mean [3]: 5.903 ng·h/mL/mg
DNCmax, Arithmetic Mean [3]: 1.353 ng/mL/mg
DNCmax, Geometric Mean [3]: 1.092 ng/mL/mg
tlag, Median [3]: 0.2494 h
tlast, Median [3]: 47.93 h
λz, Arithmetic Mean [3]: 0.0877 h⁻¹
λz, Geometric Mean [3]: 0.086 h⁻¹
DNAUC0-inf, GLS Mean [3]: 5.97 ng·h/mL/mg
DNAUC0-last, GLS Mean [3]: 5.86 ng·h/mL/mg
DNCmax, GLS Mean [3]: 1.09 ng/mL/mg
% AUCex, Arithmetic Mean [4]: 1.859%
% AUCex, Geometric Mean [4]: 1.673%
Clast, Arithmetic Mean [4]: 0.7612 ng/mL
Clast, Geometric Mean [4]: 0.7309 ng/mL
DNAUC0-inf, Arithmetic Mean [4]: 6.832 ng·h/mL/mg
DNAUC0-inf, Geometric Mean [4]: 6.259 ng·h/mL/mg
DNAUC0-last, Arithmetic Mean [4]: 6.721 ng·h/mL/mg
DNAUC0-last, Geometric Mean [4]: 6.142 ng·h/mL/mg
DNCmax, Arithmetic Mean [4]: 1.159 ng/mL/mg
DNCmax, Geometric Mean [4]: 1.014 ng/mL/mg
tlag, Median [4]: 0 h
tlast, Median [4]: 48.07 h
λz, Arithmetic Mean [4]: 0.0829 h⁻¹
λz, Geometric Mean [4]: 0.0818 h⁻¹
DNAUC0-inf, GLS Mean [4]: 6.21 ng·h/mL/mg
DNAUC0-last, GLS Mean [4]: 6.10 ng·h/mL/mg
DNCmax, GLS Mean [4]: 1.01 ng/mL/mg
% AUCex, Arithmetic Mean [5]: 1.932%
% AUCex, Geometric Mean [5]: 1.703%
Clast, Arithmetic Mean [5]: 0.8723 ng/mL
Clast, Geometric Mean [5]: 0.7962 ng/mL
DNAUC0-inf, Arithmetic Mean [5]: 7.377 ng·h/mL/mg
DNAUC0-inf, Geometric Mean [5]: 6.400 ng·h/mL/mg
DNAUC0-last, Arithmetic Mean [5]: 7.254 ng·h/mL/mg
Structure (SMILES): CC(C)(N)C(=O)N[C@H](COCc1ccccc1)C(=O)N1CCC2(CC1)CN(S(C)(=O)=O)c1ccccc12 [LUM-201, N-[1(R)-[(1,2-dihydro-1-methanesulfonylspiro[3H-indole-3,4′-piperdin]-yl)carbonyl]-2-(phenylmethyloxy)ethyl]-2-amino-2-methylpropanamide methanesulfonate]
